The values below come from ChEMBL document CHEMBL1201862, “PubChem BioAssay data set” (2004).

Experiment [1] concerns the target T1, Leucine aminopeptidase (Plasmodium falciparum 3D7, UniProt Q8IL11).
T1 sequence (Q8IL11 whole entry): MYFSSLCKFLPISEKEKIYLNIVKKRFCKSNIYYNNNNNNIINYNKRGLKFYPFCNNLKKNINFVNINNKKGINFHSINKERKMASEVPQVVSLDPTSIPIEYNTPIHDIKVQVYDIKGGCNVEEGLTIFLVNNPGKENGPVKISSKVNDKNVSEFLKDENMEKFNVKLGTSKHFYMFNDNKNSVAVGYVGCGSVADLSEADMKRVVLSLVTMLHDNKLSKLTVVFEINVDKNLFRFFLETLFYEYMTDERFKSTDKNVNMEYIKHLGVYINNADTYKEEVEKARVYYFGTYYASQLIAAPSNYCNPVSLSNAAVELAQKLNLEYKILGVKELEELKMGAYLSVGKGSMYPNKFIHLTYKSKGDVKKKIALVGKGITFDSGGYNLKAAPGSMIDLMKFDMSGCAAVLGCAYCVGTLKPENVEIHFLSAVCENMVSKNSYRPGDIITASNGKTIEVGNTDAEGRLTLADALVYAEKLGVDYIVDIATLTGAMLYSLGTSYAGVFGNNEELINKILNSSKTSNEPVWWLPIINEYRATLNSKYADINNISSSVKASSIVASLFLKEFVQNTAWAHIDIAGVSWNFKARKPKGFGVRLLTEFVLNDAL
The experiment can be described thus: P. falciparum M17LAP inhibitors, primary screen, biochemical, fluorogenic H-Leu-NHMec substrate, 1536-well (AID 1619). The class given is functional.

The nature of experiment [2]: HEp-2 cell cytotoxicity, dose response, cytotoxicity control for RSV inhibitor project, HTS (AID 2410). Conditions: human respiratory syncytial virus. The class given is functional.
Experiment [3] in a line: cells.
The target in experiment [4] is T2, High affinity choline transporter 1 (Homo sapiens, UniProt Q9GZV3).
T2 sequence (Q9GZV3 whole entry): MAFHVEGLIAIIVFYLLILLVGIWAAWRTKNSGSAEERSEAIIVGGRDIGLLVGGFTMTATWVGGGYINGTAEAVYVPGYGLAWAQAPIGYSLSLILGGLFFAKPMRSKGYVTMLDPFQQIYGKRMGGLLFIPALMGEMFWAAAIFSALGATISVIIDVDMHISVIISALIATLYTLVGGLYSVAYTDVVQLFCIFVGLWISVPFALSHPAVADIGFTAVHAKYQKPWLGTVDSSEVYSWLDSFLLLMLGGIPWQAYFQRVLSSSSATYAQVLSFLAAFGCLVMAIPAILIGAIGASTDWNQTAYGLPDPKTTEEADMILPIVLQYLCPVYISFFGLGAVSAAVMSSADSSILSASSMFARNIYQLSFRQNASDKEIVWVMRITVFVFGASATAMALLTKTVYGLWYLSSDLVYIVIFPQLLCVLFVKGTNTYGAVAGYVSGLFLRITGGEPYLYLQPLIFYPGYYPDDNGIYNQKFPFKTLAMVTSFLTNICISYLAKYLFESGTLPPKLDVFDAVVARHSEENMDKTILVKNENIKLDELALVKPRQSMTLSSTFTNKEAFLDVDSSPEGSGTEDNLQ
The experiment can be described thus: CHT inhibitors, dose response, cell-based, 5-point CRC, membrane potential dye (AID 504840). The class given is functional.

In experiment [5] the target is Large T antigen (Simian virus 40, UniProt P03070). The class given is functional, Betapolyomavirus macacae.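 Note: Confirmatory-stage PubChem screen for compounds that inhibit SV40 T antigen.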
Experiment [6] has as its target T3, Lysine-specific demethylase 4C (Homo sapiens, UniProt Q9H3R0).
T3 sequence (Q9H3R0 whole entry): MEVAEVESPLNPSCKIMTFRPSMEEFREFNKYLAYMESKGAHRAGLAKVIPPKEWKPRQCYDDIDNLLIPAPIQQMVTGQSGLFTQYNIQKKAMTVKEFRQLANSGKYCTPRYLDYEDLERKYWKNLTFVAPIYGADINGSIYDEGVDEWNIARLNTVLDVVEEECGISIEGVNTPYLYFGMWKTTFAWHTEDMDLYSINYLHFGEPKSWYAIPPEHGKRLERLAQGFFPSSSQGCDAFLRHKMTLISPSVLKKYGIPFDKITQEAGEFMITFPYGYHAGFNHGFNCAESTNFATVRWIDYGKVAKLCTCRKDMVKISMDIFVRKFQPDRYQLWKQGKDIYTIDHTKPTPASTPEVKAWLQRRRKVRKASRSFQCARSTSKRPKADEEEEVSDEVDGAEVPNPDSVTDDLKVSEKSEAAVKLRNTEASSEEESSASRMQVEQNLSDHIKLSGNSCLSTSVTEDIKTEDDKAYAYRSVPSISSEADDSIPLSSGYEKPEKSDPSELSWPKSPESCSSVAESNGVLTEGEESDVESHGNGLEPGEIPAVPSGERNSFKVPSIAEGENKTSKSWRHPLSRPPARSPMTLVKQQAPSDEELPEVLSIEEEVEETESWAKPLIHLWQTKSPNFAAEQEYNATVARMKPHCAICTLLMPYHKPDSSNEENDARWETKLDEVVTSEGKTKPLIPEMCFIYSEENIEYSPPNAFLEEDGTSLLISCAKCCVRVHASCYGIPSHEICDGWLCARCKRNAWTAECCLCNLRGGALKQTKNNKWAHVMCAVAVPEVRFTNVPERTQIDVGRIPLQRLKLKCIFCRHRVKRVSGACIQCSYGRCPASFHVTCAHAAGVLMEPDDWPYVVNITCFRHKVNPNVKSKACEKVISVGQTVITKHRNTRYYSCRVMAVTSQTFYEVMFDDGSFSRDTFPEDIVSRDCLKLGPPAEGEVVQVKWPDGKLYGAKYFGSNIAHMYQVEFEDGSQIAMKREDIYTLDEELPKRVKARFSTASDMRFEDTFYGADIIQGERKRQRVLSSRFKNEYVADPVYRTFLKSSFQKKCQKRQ
The experiment can be described thus: GASC-1 (JMJD2C) histone demethylase inhibitors, dose response, biochemical, DELFIA europium, cherry-picked samples (AID 488835). It is filed as functional.

Experiment [7] in a line: A cytotoxicity screen of small molecule inhibitors of the PhoP region in Salmonella typhi identified in the primary screen. [Related pubchem assays: 1850, 1864, 1985 ]. The class given is functional.
In experiment [8] the target is Glyceraldehyde-3-phosphate dehydrogenase (Homo sapiens, UniProt P04406).
Experiment [9] has as its system Streptococcus sp. 'group A'. The experiment can be described thus: growth inhibition of control SK(-) GAS strain, dose response, counter-screen for streptokinase expression inhibitor project, luminescence, kanamycin, BacTiterGlo, confirmation (AID 1900). It is filed as functional, organism-based.
For experiment [10], the target named is T4, Streptokinase A (Streptococcus pyogenes serotype M1, UniProt P10520).
T4 sequence (P10520 whole entry): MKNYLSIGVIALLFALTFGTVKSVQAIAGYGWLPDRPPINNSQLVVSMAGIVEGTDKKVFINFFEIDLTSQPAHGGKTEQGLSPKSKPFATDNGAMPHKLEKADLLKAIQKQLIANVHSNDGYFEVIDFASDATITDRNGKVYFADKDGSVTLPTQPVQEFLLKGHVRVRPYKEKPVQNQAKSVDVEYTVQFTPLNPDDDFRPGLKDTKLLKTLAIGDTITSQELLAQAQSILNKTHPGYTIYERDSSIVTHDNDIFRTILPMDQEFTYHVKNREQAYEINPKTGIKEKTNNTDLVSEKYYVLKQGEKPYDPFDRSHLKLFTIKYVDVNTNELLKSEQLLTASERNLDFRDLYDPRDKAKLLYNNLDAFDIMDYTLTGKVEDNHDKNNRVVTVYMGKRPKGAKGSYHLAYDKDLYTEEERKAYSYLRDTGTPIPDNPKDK
The experiment can be described thus: S. pyogenes streptokinase expression inhibitors, potency, dose response, plasminogen activation absorbance, OD405 (AID 1914).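 Note: secreted streptokinase activity via plasminogen activation per viability signal from cell pellet.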 The class given is functional, Streptococcus pyogenes M1 GAS.

Experiment [11] relates to Streptococcus. The experiment can be described thus: Group A Streptococcus viability loss, dose response, counter-screen for streptokinase expression inhibitor project, luminescence, BacTiterGlo (AID 1915).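 Note: potency for reduction of bacterial viability or growth.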 It is filed as functional, organism-based.
Experiment [12] deals with H9c2. The experiment can be described thus: cells. It is filed as functional, cell-based. The conditions noted are these: Rattus norvegicus, H9c2, Myocardium.
Experiment [13] deals with T5, Corticotropin-releasing factor receptor 2/Corticotropin-releasing factor-binding protein (Homo sapiens, UniProt P24387+Q13324).
T5 sequence (Q13324 whole entry): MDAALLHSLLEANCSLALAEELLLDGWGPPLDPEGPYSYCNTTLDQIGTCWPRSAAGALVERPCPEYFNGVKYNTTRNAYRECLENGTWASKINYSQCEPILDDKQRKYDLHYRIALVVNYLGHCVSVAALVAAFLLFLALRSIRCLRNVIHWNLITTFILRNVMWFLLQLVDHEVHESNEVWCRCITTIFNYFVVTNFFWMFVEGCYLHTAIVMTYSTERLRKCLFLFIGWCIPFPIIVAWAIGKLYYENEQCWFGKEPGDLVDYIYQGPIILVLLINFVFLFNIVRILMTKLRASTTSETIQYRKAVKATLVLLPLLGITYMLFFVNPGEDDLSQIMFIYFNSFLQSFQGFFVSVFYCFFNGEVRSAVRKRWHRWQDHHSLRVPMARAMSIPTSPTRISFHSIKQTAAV
T5 sequence (P24387 whole entry): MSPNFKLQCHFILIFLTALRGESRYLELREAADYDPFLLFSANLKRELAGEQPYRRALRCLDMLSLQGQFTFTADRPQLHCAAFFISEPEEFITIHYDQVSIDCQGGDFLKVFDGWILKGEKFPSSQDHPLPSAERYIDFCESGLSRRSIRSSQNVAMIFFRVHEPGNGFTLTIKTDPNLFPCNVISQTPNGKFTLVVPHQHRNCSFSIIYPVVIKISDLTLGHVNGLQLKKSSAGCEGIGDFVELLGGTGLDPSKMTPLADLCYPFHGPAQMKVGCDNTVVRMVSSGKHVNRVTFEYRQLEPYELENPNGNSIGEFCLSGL
The experiment can be described thus: activators of CRF receptor 2 with binding protein – uHTS hits, confirmation (AID 602473). It is filed as functional. The conditions noted are these: read-out: EC50_Mean.

Experiment [14] deals with T6, Estrogen receptor (Homo sapiens, UniProt P03372).
T6 sequence (P03372 whole entry): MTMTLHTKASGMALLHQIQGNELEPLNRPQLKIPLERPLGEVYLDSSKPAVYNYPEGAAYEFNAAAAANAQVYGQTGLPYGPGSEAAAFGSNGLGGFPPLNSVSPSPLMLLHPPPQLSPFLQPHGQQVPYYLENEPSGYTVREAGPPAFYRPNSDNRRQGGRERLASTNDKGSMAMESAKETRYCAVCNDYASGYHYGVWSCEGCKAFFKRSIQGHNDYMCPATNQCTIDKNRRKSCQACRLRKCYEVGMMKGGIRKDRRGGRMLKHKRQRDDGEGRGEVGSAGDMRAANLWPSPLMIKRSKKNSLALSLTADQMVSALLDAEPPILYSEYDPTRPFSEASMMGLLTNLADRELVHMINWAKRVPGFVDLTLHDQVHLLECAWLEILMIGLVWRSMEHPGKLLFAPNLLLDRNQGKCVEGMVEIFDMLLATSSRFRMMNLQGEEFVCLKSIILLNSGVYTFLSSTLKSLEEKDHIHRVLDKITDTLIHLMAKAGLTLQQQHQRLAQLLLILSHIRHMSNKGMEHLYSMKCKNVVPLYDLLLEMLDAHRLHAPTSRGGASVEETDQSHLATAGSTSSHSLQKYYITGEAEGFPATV

Each structure is given as a SMILES string. Activity calls are given as the source filed them. Where only a bound is given, the exact number is not on record here.

Chain of Glyceraldehyde-3-phosphate dehydrogenase (P04406 whole entry): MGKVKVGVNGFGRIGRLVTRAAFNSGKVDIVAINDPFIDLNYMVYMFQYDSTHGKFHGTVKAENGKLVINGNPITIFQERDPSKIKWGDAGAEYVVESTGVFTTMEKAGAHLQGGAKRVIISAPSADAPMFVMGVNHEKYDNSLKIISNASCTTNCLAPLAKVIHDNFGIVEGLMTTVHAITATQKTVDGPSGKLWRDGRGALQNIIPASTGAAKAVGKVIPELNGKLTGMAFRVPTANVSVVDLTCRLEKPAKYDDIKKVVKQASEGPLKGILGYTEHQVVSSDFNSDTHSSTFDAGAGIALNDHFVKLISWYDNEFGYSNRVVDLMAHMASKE
Chain of Large T antigen (P03070 whole entry): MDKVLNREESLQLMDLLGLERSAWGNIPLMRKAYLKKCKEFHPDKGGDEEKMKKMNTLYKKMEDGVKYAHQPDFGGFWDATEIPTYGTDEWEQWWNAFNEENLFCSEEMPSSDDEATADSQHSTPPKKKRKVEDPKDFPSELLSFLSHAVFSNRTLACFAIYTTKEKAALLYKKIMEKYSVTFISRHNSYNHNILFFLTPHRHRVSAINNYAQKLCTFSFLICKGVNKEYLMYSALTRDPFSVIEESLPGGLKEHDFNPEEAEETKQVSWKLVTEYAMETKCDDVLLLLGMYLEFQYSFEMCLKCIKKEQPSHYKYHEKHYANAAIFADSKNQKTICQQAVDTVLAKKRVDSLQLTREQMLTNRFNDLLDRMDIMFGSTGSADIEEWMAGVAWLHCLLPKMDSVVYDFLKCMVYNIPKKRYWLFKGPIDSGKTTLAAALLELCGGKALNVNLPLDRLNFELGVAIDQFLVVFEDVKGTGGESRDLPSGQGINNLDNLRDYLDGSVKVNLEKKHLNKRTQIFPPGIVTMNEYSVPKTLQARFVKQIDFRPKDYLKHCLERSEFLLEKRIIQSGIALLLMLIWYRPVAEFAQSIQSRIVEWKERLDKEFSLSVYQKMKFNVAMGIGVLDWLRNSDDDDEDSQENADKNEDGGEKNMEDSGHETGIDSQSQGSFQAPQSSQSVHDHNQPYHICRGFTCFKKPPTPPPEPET

Regarding `O=C(CN1C(=O)c2ccccc2C1=O)Nc1ccc2c(c1)OCO2`, the IC50 in experiment [1] was 9.43 µM (active).

On to `CCOc1ccc(N2C(=O)C(CC(=O)Nc3ccc(F)cc3)N(Cc3ccccn3)C2=S)cc1` (centres undefined), for which, in [2], the 50% cytotoxic concentration (CC50) is 32.9 µM (active). Moreover, in [3], the concentration for half-maximal inhibition (IC50) was 23.9 µM (active).

For the compound `Cc1cc(CN(C)C(=O)c2cc(COc3ccc(F)cc3Cl)on2)n[nH]1`, the values for the half-inhibitory concentration (IC50) in [4] and in experiment [3] were 9.89 µM (active) and 24.6 µM (active), respectively. Further, the cytotoxic concentration (CC50) in experiment [2] was 39.1 µM (active). With `CC(=O)c1cc2c(O)c(O)ccc2o1`, the 50% inhibitory concentration (IC50) in experiment [1] is 75.4 µM (active); in experiment [5] it was 18.5 µM (active). The concentration at half-maximal activity (AC50) in experiment [6] was 9.2 µM (active). `CCOc1ccc(NC(S)=Nc2cc(C)[nH]n2)cc1`: in experiment [7], the EC50 is > 50 µM (active).

In the case of `CC(=O)Oc1ccc(-c2cccc(C(=O)NCC(=O)O)c2)cc1`, the IC50 in experiment [8] is > 100 µM (not active). For the compound `COc1ccc2[nH]cc(C(=O)CN3CCN(C4CCCCC4)CC3)c2c1`, the half-maximal inhibitory concentration (IC50) in experiment [3] was 36.6 µM (active). `COc1cc2[nH]c(=S)n(CC3CCCO3)c(=O)c2cc1OC` (centres undefined): the EC50 in experiment [7] was > 50 µM (active).

Consider `O=C(CN1C2=NCCCN2c2ccccc21)c1ccc2c(c1)OCO2`, for which the EC50 in experiment [7] is > 50 µM (active). For `N#CC(C(=O)C12CC3CC(CC(C3)C1)C2)c1nc2ccccc2[nH]1` (centres undefined), the EC50 is 5.14 µM (active) in experiment [9], 66 µM (active) in experiment [10], > 150 µM (not active) in experiment [11] and > 50 µM (active) in experiment [7].

Take `Cc1nc(SCC(=O)Nc2ccc3c(c2)OCCO3)nc(C)c1C`: the IC50 in experiment [1] is 43.5 µM (active).

For `COc1cc(/C=c2\s/c(=C(/C#N)C(=O)N3CCCC3)n(-c3ccccc3)c2=O)ccc1O`, the IC50 in [12] is > 79 µM (inactive); in [14], > 50 µM (not active). Also, the EC50 in experiment [13] is 8.71 µM (active). Turning to `COc1cc(/C=N/NC(=O)COc2c(C)cc([N+](=O)[O-])cc2C)ccc1OC(=O)c1ccccc1`, the CC50 in [2] is 41.7 µM (active). Further, the half-maximal inhibitory concentration (IC50) in experiment [3] was 17.9 µM (active).
